Changes are numbered by the printed parent chain. Blank lines part the entries; values can stand above or below the molecule they belong to.
Key:
[1] = biological target: T1, Lys^65Arg hFFA2 (Homo sapiens, UniProt O15552, K65R); assay: inositol monophosphate accumulation assay, Lys65Arg hFFA2; format: cell-based
T1 construct: NanoLuc Luciferase (N); eYFP; expressed in transfected cells; host or cells: Flp-In T-REx HEK293, doxycycline-induced
T1 sequence (O15552 1-330 K65R): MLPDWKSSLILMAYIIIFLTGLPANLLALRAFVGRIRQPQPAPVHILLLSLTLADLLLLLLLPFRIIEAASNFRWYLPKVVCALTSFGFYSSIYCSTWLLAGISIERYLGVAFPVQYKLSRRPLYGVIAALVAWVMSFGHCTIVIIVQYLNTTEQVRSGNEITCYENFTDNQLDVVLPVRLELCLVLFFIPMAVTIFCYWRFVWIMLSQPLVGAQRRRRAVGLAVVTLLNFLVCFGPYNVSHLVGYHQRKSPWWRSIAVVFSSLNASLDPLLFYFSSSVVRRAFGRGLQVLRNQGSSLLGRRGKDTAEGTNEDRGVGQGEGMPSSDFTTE
Description: (§1) All cAMP and inositol monophosphate experiments were performed using Flp-In T-REx HEK293 cells induced to express the receptor of interest. Experiments were carried out using respective homogenous time-resolved FRET-based detection kits (CisBio Bioassays; CisBio, Codolet, France) according to the manufacturer’s protocol. For the cAMP inhibition assay cells were plated at 2000 cells/well in low-volume 384-well plates. The ability of agonists to inhibit 1 μM forskolin-induced cAMP production was assessed following a co-incubation for 30 min with agonist compounds. For the inositol monophosphate accumulation assay cells were plated at 7500 cells/well in low-volume 384-well plates and incubated for 2 h at 37 °C with test compounds. To assess ability of antagonists to inhibit agonist responses, cells were pre-incubated with antagonist compounds for 30 min at 37 °C prior to addition of an EC80 concentration of agonist. Respective reactions were stopped according to the manufacturer’s instructions and the output was measured by with a PHERAstar FS plate reader (BMGLabtech, Aylesbury, UK).

[2] = biological target: T2, Lys^65Glu hFFA2 (Homo sapiens, UniProt O15552, K65E); assay: inositol monophosphate accumulation assay, Lys65Glu hFFA2; format: cell-based
T2 construct: NanoLuc Luciferase (N); eYFP; expressed in transfected cells; host or cells: Flp-In T-REx HEK293, doxycycline-induced
T2 sequence (O15552 1-330 K65E): T1 sequence (O15552 1-330 K65R) with R65E
Description: as §1

[3] = biological target: T1, Lys^65Arg hFFA2; assay: HTRF cAMP inhibition assay, Lys65Arg hFFA2; format: cell-based; details: inhibition of 1 μM forskolin-induced cAMP
Description: as §1

[4] = biological target: T2, Lys^65Glu hFFA2; assay: HTRF cAMP inhibition assay, Lys65Glu hFFA2; format: cell-based; details: inhibition of 1 μM forskolin-induced cAMP, K65E hFFA2
Description: as §1

[5] = biological target: T1, Lys^65Arg hFFA2; assay: [35S]GTPγS incorporation assay, Lys65Arg hFFA2; format: biochemical; details: membranes
Description: (§2) Initially, 5 μg of generated membrane protein was pre-incubated for 15 min at 25 °C in assay buffer (50 mM Tris-HCl, 10 mM MgCl2; 100 mM NaCl; 1 mM EDTA; 1 μM GDP; 0.1% fatty acid-free bovine serum albumin; pH 7.4) containing the indicated ligand concentrations. […] Unbound radioligand was removed from filters by three washes with ice-cold wash buffer (50 mM Tris-HCl, 10 mM MgCl2; pH 7.4) and filters were dried for 2–3 h at room temperature. Dried filters were added to 3 mL of Ultima Gold^TM XR (PerkinElmer Life Sciences, Beaconsfield, UK) and [^35S]GTPγS binding was determined by liquid scintillation spectrometry.

[6] = biological target: T2, Lys^65Glu hFFA2; assay: [35S]GTPγS incorporation assay, Lys65Glu hFFA2; format: biochemical; details: membranes
Description: as §2

[7] = biological target: T3, hFFA2 (Homo sapiens, UniProt O15552); assay: inositol monophosphate accumulation assay, wild type hFFA2; format: cell-based; design: expressed in transfected cells
T3 sequence (O15552 1-330): T1 sequence (O15552 1-330 K65R) with R65K
Description: as §1

[8] = biological target: T3, hFFA2; assay: HTRF cAMP inhibition assay, wild type hFFA2; format: cell-based; design: expressed in transfected cells; details: inhibition of 1 μM forskolin-induced cAMP
Description: as §1

[9] = biological target: T4, Lys^65Ala hFFA2 (Homo sapiens, UniProt O15552, K65A); assay: inositol monophosphate accumulation assay, Lys65Ala hFFA2; format: cell-based; design: NanoLuc Luciferase (N); eYFP; expressed in transfected cells; host or cells: Flp-In T-REx HEK293, doxycycline-induced
T4 sequence (O15552 1-330 K65A): T1 sequence (O15552 1-330 K65R) with R65A
Description: as §1

[10] = biological target: T4, Lys^65Ala hFFA2; assay: HTRF cAMP inhibition assay, Lys65Ala hFFA2; format: cell-based; design: NanoLuc Luciferase (N); eYFP; expressed in transfected cells; host or cells: Flp-In T-REx HEK293, doxycycline-induced; details: inhibition of 1 μM forskolin-induced cAMP, K65A hFFA2
Description: as §1

[11] = biological target: T4, Lys^65Ala hFFA2; assay: [35S]GTPγS incorporation assay, Lys65Ala hFFA2; format: biochemical; design: NanoLuc Luciferase (N); eYFP; expressed in transfected cells; host or cells: Flp-In T-REx HEK293, doxycycline-induced; details: membranes
Description: as §2

[12] = biological target: T3, hFFA2; assay: [35S]GTPγS incorporation assay, wild type hFFA2; format: biochemical; design: HA-tag (C); expressed in transfected cells; host or cells: HEK293, parental and CRISPR/Cas9 G protein-deleted lines, transient transfection; details: membranes
Description: as §2

[13] = biological target: T5, mFFA2 (Mus musculus, UniProt Q8VCK6); assay: inositol monophosphate accumulation assay, mFFA2; format: cell-based; details: EC80 concentration of C3, wild type mFFA2
T5 construct: eYFP; expressed in transfected cells; host or cells: Flp-In T-REx HEK293, doxycycline-induced
T5 sequence (Q8VCK6 1-330): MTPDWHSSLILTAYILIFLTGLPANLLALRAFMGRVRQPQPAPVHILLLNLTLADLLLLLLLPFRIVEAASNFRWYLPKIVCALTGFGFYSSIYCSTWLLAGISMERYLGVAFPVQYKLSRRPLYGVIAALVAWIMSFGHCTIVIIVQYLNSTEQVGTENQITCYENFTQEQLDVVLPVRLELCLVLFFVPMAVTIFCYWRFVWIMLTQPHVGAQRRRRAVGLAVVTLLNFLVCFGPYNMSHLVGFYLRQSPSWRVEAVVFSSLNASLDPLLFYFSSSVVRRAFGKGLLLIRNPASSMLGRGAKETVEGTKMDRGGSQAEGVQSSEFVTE
Description: as §1

[14] = biological target: T6, Arg^65Lys mFFA2 (Mus musculus, UniProt Q8VCK6, R65K); assay: inositol monophosphate accumulation assay, Arg65Lys mFFA2; format: cell-based; details: concentration-dependent
T6 construct: eYFP; expressed in transfected cells
T6 sequence (Q8VCK6 1-330 R65K): T5 sequence (Q8VCK6 1-330) with R65K
Description: as §1

[15] = test system: bovine FFA2; design: method as in Hudson et al., unpublished; details: bovine FFA2 has Lys at residue 65; ref Hudson et al., unpublished; cited from earlier work
[16] = biological target: T1, Lys^65Arg hFFA2; design: method as in PMID 26991104; details: not compatible with current results; cited from earlier work

pEC50 cAMP, K65R [3]: 6.47 ± 0.15
pEC50 cAMP, K65E [4]: 6.45 ± 0.15
pEC50 GTPγS, K65R [5]: 6.79 ± 0.07
pEC50 GTPγS, K65E [6]: 6.79 ± 0.12
pEC50 cAMP, WT [8]: 6.35 ± 0.13
pEC50 cAMP, K65A [10]: 6.42 ± 0.03
pEC50 GTPγS, K65A [11]: 6.94 ± 0.14
pEC50 GTPγS, WT [12]: 6.97 ± 0.02
Structure (SMILES): Cc1nc(NC(=N)N)sc1-c1cccc(NC(=O)c2ccc(F)cc2)c1 [AZ1729, N-[3-(2-carbamimidamido-4-methyl-1,3-thiazol-5-yl)phenyl]-4-fluoro benzamide]
inositol monophosphate production via Lys65Arg hFFA2 [1]: unable to promote inositol monophosphate production
inositol monophosphate production via Lys65Glu hFFA2 [2]: unable to promote inositol monophosphate production
accumulation of inositol monophosphates via hFFA2 ([7]; wild type hFFA2): unable to promote accumulation of inositol monophosphates
inositol monophosphate production via Lys65Ala hFFA2 [9]: unable to promote inositol monophosphate production

ability to block compound 1-mediated elevation of inositol monophosphate accumulation at Lys65Arg hFFA2 ([1]; EC80 concentration of compound 1): all but abolished
IC50 ([1]; against an EC80 concentration of compound 1, K65R hFFA2, read-out: pIC50 to inhibit inositol monophosphate response, K65R (converted)): > 31600 nM
IC50 ([2]; against an EC80 concentration of compound 1, K65E hFFA2, read-out: pIC50 to inhibit inositol monophosphate response, K65E (converted)): > 31600 nM
effect on C3-stimulated inositol monophosphate production at mFFA2 [13]: unaffected
antagonism of C3-mediated inositol monophosphate accumulation at Arg65Lys mFFA2 [14]: fully antagonize
IC50 ([7]; against an EC80 concentration of compound 1, wild type hFFA2, read-out: pIC50 to inhibit inositol monophosphate response, WT (converted)): 19.1 nM
IC50 ([9]; against an EC80 concentration of compound 1, K65A hFFA2, read-out: pIC50 to inhibit inositol monophosphate response, K65A (converted)): 437 nM
Structure (SMILES): O=C(O)C[C@H](Cc1ccc(C(F)(F)F)cc1)NC(=O)Cc1cccc(Cl)c1 [CATPB, (S)-3-(2-(3-chlorophenyl)acetamido)-4-(4-(trifluoromethyl)phenyl)butanoic acid]
binding to bovine FFA2 [15]: does not bind CAPTB with high affinity
antagonism of C3 at Lys65Arg hFFA2 [16]: effective and competitive antagonist
